Reference: patent US10131644B2, “Aryl sultam derivatives as RORc modulators” (Genentech, Inc., priority 2014, dated 2018)

Biological target: T1, RORc (Homo sapiens, UniProt P51449)
T1 sequence (P51449 269-508 limits assumed): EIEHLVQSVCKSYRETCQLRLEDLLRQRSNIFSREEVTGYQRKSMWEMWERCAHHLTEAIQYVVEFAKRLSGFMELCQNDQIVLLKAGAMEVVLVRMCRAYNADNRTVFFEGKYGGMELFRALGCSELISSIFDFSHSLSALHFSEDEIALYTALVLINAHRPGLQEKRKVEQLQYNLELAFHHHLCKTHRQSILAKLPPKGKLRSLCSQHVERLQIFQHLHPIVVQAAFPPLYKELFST
Experiment: In vitro RORc ligand binding assay (25-[3H]hydroxycholesterol displacement)
Details: IC50, IC50 values for RORc; unit inferred
Protocol: This assay was used to determine a compound's potency in inhibiting activity of RORc by determining, Kiapp, IC50, or percent inhibition values.
On day of the assay, 100 uL of 0.05% CHAPS (in deionized H2O) was added to all wells of the GFB Unifilter plate and allowed soak for 1 h. A wash buffer of 50 mM HEPES (pH 7.4), 150 mM NaCl, and 5 mM MgCl2 was prepared to wash the filter plate. To prepare an assay buffer, BSA was added to the wash buffer to reach 0.01% and DTT was added to reach 1 mM.
The 20× compound stocks were diluted in DMSO with Assay Buffer 4-fold to reach 5× the final test concentration in 25% DMSO (10 uL compound+30 uL Assay Buffer). Solutions were mixed by aspiration several times with a pipette set on 50 uL volume. For the assay, 10 uL of 5× compound stock solutions in 25% DMSO were added to the assay plate in duplicate.
For two point screening, 10 mM stock compound solutions were diluted in DMSO to obtain 200 uM (20× the high test concentration) and then diluted 10-fold further to reach 20 uM (20× the low test concentration). The 20× stocks were diluted 4-fold with Assay Buffer (10 uL compound+30 uL Assay Buffer) to reach 5× the test concentrations (50 uM and 5 uM) and 10 uL were added to two assay plates for the duplicate wells. With each concentration tested on 2 plates, each set of 80 compounds used 4 assay plates (1 uM and 10 uM, with n=2).
For 25-hydroxycholesterol in 25% DMSO/75% Assay Buffer; 10 uL per well was used for NSB samples. Wells for Total Binding and No Receptor sample determination contained 10 uL of 25% DMSO/75% Assay Buffer per well.
Add 20 uL to all wells to reach 6 nM final in the assay.
Stock receptor solution was diluted in assay buffer to obtain 1.5 ug/mL in Assay Buffer. 20 uL was added to all wells. For No R samples, 20 uL Assay Buffer was substituted for receptor solution.
Assay plates were 96-well polypropylene V-bottom plates. 10 uL of 5× compound in 25% DMSO/75% Assay Buffer was added to Test wells. 10 uL of 25% DMSO/75% Assay Buffer was added to Total Binding or No Receptor wells. 10 uL of 5 uM 25-hydroxycholesterol in 25% DMSO/75% Assay Buffer was added to NSB wells. […] 20 uL of 1.5 ug/mL RORc receptor was added to wells (or 40 uL Assay Buffer to No R wells). Following addition to the wells, the plates were incubated 3 h at 25° C.
Using a Packard Filtermate Harvester, the filter plate were washed 4 times following transfer of the incubated samples. Plates were dry-filtered completely (2 h at 50° C. or overnight at room temperature). 50 uL Microscint 0 was added to all wells and read on Topcount protocol Inverted.
For NSB wells, 1 uM 25-hydroxycholesterol was also present.

Compound | IC50 [nM]
C[C@H]1CC[C@H](c2ccccc2)S(=O)(=O)N1Cc1cc(F)c(C2(OCC(O)CO)COC2)cc1F (stereo partly drawn) [Compound 142, 3-[3-[2,5-difluoro-4-[[(3S,6R)-3-methyl-1,1-dioxo-6-phenyl-thiazinan-2-yl]methyl]phenyl]oxetan-3-yl]oxypropane-1,2-diol] | 20.6
COCCOCC1(c2ccc(CN3[C@@H](C)CC[C@H](c4ccccc4)S3(=O)=O)c(F)c2)CCOCC1 [Compound 82, (3S,6R)-2-[[2-fluoro-4-[4-(2-methoxyethoxymethyl)tetrahydropyran-4-yl]phenyl]methyl]-3-methyl-6-phenyl-thiazinane 1,1-dioxide] | 70.5
COCC1(c2ccc(CN3[C@@H](C)CC[C@H](c4ccccc4)S3(=O)=O)c(F)c2)CCOCC1 [Compound 90, (3S,6R)-2-[[2-fluoro-4-[4-(methoxymethyl)tetrahydropyran-4-yl]phenyl]methyl]-3-methyl-6-phenyl-thiazinane 1,1-dioxide] | 67
C[C@H]1CC[C@H](c2ccccc2)S(=O)(=O)N1Cc1ccc(C2(C(=O)NCCO)CCOCC2)cc1F [Compound 48, 4-(3-fluoro-4-(((3S,6R)-3-methyl-1,1-dioxido-6-phenyl-1,2-thiazinan-2-yl)methyl)phenyl)-N-(2-hydroxyethyl)tetrahydro-2H-pyran-4-carboxamide] | 337
C[C@H]1CC[C@H](c2ccccc2)S(=O)(=O)N1Cc1ccc(C2(CNS(C)(=O)=O)CCOCC2)cc1F [Compound 71, N-[[4-[3-fluoro-4-[[(3S,6R)-3-methyl-1,1-dioxo-6-phenyl-thiazinan-2-yl]methyl]phenyl]tetrahydropyran-4-yl]methyl]methanesulfonamide] | 76.7
C[C@H]1CC[C@H](c2ccccc2)S(=O)(=O)N1Cc1ccc(C2(OCCO)CCOCC2)cc1F [Compound 99, 2-[4-[3-fluoro-4-[[(3S,6R)-3-methyl-1,1-dioxo-6-phenyl-thiazinan-2-yl]methyl]phenyl]tetrahydropyran-4-yl]oxyethanol] | 66.4

Continued by falling IC50, values first:

IC50 [nM] | Compound
376 | C[C@H]1CC[C@H](c2ccccc2)S(=O)(=O)N1Cc1ccc(C2(CC(N)=O)CCOCC2)cc1F [Compound 89, 2-[4-[3-fluoro-4-[[(3S,6R)-3-methyl-1,1-dioxo-6-phenyl-thiazinan-2-yl]methyl]phenyl]tetrahydropyran-4-yl]acetamide]
186 | C[C@H]1CC[C@H](c2ccccc2)S(=O)(=O)N1Cc1ccc(C2(C#N)CCOCC2)cc1F [Compound 61, 4-[3-fluoro-4-[[(3S,6R)-3-methyl-1,1-dioxo-6-phenyl-thiazinan-2-yl]methyl]phenyl]tetrahydropyran-4-carbonitrile]
147 | CCNC(=O)C1(c2ccc(CN3[C@@H](C)CC[C@H](c4ccccc4)S3(=O)=O)c(F)c2)CCOCC1 [Compound 51, N-ethyl-4-[3-fluoro-4-[[(3S,6R)-3-methyl-1,1-dioxo-6-phenyl-thiazinan-2-yl]methyl]phenyl]tetrahydropyran-4-carboxamide]
75.8 | C[C@H]1CC[C@H](c2ccccc2)S(=O)(=O)N1Cc1ccc(C2(COCCCO)CCOCC2)cc1F [Compound 92, 3-[[4-[3-fluoro-4[[(3S,6R)-3-methyl-1,1-dioxo-6-phenyl-thiazinan-2-yl]methyl]phenyl]tetrahydropyran-4-yl]methoxy]propan-1-ol]
29.8 | CC(=O)N1CC(OCC(O)CO)(c2cc(F)c(CN3[C@@H](C)CC[C@H](c4ccccc4)S3(=O)=O)cc2F)C1 (stereo partly drawn) [Compound 143, 1-[3-[2,5-difluoro-4-[[(3S,6R)-3-methyl-1,1-dioxo-6-phenyl-thiazinan-2-yl]methyl]phenyl]-3-(2,3-dihydroxypropoxy)azetidin-1-yl]ethanone]
27.4 | C[C@H]1CC[C@H](c2ccccc2)S(=O)(=O)N1Cc1ccc(C2(OC[C@@H](O)CO)CCOCC2)cc1F [Compound 119, (2S)-3-[4-[3-fluoro-4-[[(3S,6R)-3-methyl-1,1-dioxo-6-phenyl-thiazinan-2-yl]methyl]phenyl]tetrahydropyran-4-yl]oxypropane-1,2-diol]
